Six compounds from patent publication US8017602B2, “N-(2-(2-(5-hydroxy-3-oxo-3,4-dihydro-2H-benzo[b][1,4]oxazin-8-yl)ethylamino)ethyl)-3-(phenethoxy)propanamide derivatives, processes for their preparation, pharmaceutical compositions containing them and their use in therapy” (AstraZeneca AB, priority 2008, dated 2011) can be followed below.

Structures are written as SMILES. Counter-ions that a name gives are not always drawn. A value given as a limit tells only on which side of the number the result lay.

The target in one experiment is T1, Adrenergic β2 (Homo sapiens, UniProt P07550).
T1 construct: Adherent H292 cells were removed from tissue culture flasks; endogenous in cells; host or cells: H292 cells
T1 sequence (P07550 whole entry): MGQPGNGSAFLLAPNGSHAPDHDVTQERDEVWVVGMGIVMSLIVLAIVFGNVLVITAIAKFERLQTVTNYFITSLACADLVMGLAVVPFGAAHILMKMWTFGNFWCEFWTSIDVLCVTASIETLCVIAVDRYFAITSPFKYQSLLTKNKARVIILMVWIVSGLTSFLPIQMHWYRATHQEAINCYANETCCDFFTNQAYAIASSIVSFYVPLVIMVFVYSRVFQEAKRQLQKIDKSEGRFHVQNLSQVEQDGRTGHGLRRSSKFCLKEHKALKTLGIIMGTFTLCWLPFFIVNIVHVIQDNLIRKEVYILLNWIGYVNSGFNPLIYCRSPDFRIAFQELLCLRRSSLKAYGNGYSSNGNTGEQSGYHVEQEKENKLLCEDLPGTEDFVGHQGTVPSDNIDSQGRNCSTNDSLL
The experiment is described as follows: Adrenergic β2 mediated cAMP production in H292 cells (AlphaScreen cAMP detection). It counts as cell-based. Conditions: for β2 Int Act: Intrinsic Activity, fraction relative to the maximum activity determined for formoterol; for EC50: cAMP production, 60 min at room temperature, 300 μM rolipram, read-out: β2 pEC50 (converted). The procedure:
H292 cells were grown in 225 cm2 flasks incubator at 37° C., 5% CO2 in RPMI medium containing, 10% (v/v) FBS (foetal bovine serum) and 2 mM L-glutamine.
Adherent H292 cells were removed from tissue culture flasks by treatment with Accutase™ cell detachment solution for 15 min. Flasks were incubated for 15 min in a humidified incubator at 37° C., 5% CO2. Detached cells were re-suspended in RPMI media (containing 10% (v/v) FBS and 2 mM L-glutamine) at […]. 10000 cells in 100 μl were added to each well of a tissue-culture-treated 96-well plate and the cells incubated overnight in a humidified incubator at 37° C., 5% CO2. The culture media was removed and cells were washed twice with 100 μl assay buffer and replaced with 50 μL assay buffer (HBSS solution containing 10 mM HEPES pH7.4 and 5 mM glucose). Cells were rested at room temperature for 20 min after which time 25 μl of rolipram (1.2 mM made up in assay buffer containing 2.4% (v/v) dimethylsulphoxide) was added. Cells were incubated with rolipram for 10 min after which time test compounds were added and the cells were incubated for 60 min at room temperature. The final rolipram concentration in the assay was 300 μM and final vehicle concentration was 1.6% (v/v) dimethylsulphoxide. The reaction was stopped by removing supernatants, washing once with 100 μL assay buffer and replacing with 50 μL lysis buffer. The cell monolayer was frozen at −80° C. for 30 min (or overnight).
AlphaScreen™ cAMP Detection
The concentration of cAMP (cyclic adenosine monophosphate) in the cell lysate was determined using AlphaScreen™ methodology. The frozen cell plate was thawed for 20 min on a plate shaker then 10 μl of the cell lysate was transferred to a 96-well white plate. 40 μL of mixed AlphaScreen™ detection beads pre-incubated with biotinylated cAMP, was added to each well and the plate incubated at room temperature for 10 h in the dark. The AlphaScreen™ signal was measured using an EnVision spectrophotometer (Perkin-Elmer Inc.) with the recommended manufacturer's settings. cAMP concentrations were determined by reference to a calibration curve determined in the same experiment using standard cAMP concentrations. Concentration response curves for agonists were constructed and data was fitted to a four parameter logistic equation to determine both the pEC50 and Intrinsic Activity. Intrinsic Activity was expressed as a fraction relative to the maximum activity determined for formoterol in each experiment.
In general terms: Cyclic AMP is a second messenger, typically raised through Gs and lowered through Gi signalling.

Experiment [1] addresses T2, recombinant human α1D receptor (Homo sapiens, UniProt P25100).
T2 construct: expressed in transfected cells; host or cells: HEK293
T2 sequence (P25100 1-572): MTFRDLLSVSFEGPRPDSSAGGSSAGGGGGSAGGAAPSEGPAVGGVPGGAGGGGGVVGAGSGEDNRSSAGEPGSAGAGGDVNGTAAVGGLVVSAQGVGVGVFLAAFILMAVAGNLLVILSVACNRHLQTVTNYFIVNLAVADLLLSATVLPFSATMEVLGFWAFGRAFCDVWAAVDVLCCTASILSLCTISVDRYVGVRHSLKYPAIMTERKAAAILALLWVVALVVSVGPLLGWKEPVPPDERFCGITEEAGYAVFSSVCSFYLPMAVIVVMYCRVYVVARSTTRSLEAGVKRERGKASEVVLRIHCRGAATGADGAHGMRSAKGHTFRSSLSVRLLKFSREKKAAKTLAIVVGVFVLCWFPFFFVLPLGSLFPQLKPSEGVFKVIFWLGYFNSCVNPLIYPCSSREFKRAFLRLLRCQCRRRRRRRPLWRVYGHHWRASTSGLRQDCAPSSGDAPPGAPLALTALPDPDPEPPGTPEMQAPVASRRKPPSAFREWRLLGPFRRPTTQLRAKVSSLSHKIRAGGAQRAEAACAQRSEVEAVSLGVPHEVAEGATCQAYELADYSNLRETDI
The experiment is described as follows: Adrenergic α1D selectivity binding assay ([3H]-prazosin). Conditions: inhibition of [3H]-prazosin binding, HEK293 membranes, read-out: α1 bind pIC50 (converted). On the procedure:
Membranes were prepared from human embryonic kidney 293 (HEK293) cells expressing recombinant human α1D receptor. These were diluted in Assay Buffer (50 mM HEPES, 1 mM EDTA, pH 7.4) to provide a final concentration of membranes that gave a clear window between maximum and minimum specific binding.
(§1) Assays were performed in U-bottomed 96-well polypropylene plates. 10 μl [^3H]-prazosin (0.3 nM final concentration) and 10 μl of test compound (10× final concentration) were added to each test well. For each assay plate 8 replicates were obtained for [^3H]-prazosin binding in the presence of 10 μl vehicle (10% (v/v) DMSO in Assay Buffer; defining maximum binding) or 10 μL BMY7378 (10 μM final concentration; defining non-specific binding (NSB)). Membranes were then added to achieve a final volume of 100 μL. The plates were incubated for 2 h at room temperature and then filtered onto PEI coated GF/B filter plates, pre-soaked for 1 h in Assay Buffer, using a 96-well plate Tomtec cell harvester. Five washes with 250 μl wash buffer (50 mM HEPES, 1 mM EDTA, pH 7.4) were performed at 4° C. to remove unbound radioactivity. The plates were dried then sealed from underneath using Packard plate sealers and MicroScint-O (50 μl) was added to each well. The plates were sealed (TopSeal A) and filter-bound radioactivity was measured with a scintillation counter (TopCount, Packard BioScience) using a 3-minute counting protocol.
Total specific binding (B0) was determined by subtracting the mean NSB from the mean maximum binding. NSB values were also subtracted from values from all other wells. […] Data was fitted to a four parameter logistic equation to determine the compound potency, which was expressed as pIC50 (negative log molar concentration inducing 50% inhibition of [^3H]-prazosin binding).

Experiment [2] addresses T3, recombinant human Dopamine Subtype D2s receptors (Homo sapiens, UniProt P14416).
T3 construct: purchased Perkin Elmer
The experiment is described as follows: Dopamine D2 selectivity binding assay ([3H]-spiperone). Conditions: inhibition of [3H]-spiperone binding, human D2s membranes; read-out: D2 bind pIC50 (converted). On the procedure: Membranes containing recombinant human Dopamine Subtype D2s receptors were obtained from Perkin Elmer. These were diluted in Assay Buffer (50 mM HEPES, 1 mM EDTA, 120 mM NaCl, 0.1% gelatin, pH 7.4) to provide a final concentration of membranes that gave a clear window between maximum and minimum specific binding.
Assays were performed in U-bottomed 96-well polypropylene plates. 30 μL [^3H]-spiperone (0.16 nM final concentration) and 30 μl of test compound (10× final concentration) were added to each test well. For each assay plate 8 replicates were obtained for [^3H]-spiperone binding in the presence of 30 μL vehicle (10% (v/v) DMSO in Assay Buffer; defining maximum binding) or 30 μl Haloperidol (10 μM final concentration; defining non-specific binding (NSB)). Membranes were then added to achieve a final volume of 300 μL. The plates were incubated for 2 h at room temperature and then filtered onto PEI coated GF/B filter plates, pre-soaked for 1 h in Assay Buffer, using a 96-well plate Tomtec cell harvester. Five washes with 250 μl wash buffer (50 mM HEPES, 1 mM EDTA, 120 mM NaCl, pH 7.4) were performed at 4° C. to remove unbound radioactivity. The plates were dried then sealed from underneath using Packard plate sealers and MicroScint-O (50 μl) was added to each well. The plates were sealed (TopSeal A) and filter-bound radioactivity was measured with a scintillation counter (TopCount, Packard BioScience) using a 3-minute counting protocol.
Total specific binding (B0) was determined by subtracting the mean NSB from the mean maximum binding. NSB values were also subtracted from values from all other wells. […] Data was fitted to a four parameter logistic equation to determine the compound potency, which was expressed as pIC50 (negative log molar concentration inducing 50% inhibition of [^3H]-spiperone binding).

For experiment [3], the target named is T4, recombinant human adrenergic beta 1 receptors (Homo sapiens, UniProt P08588).
T4 construct: purchased Euroscreen
T4 sequence (P08588 whole entry): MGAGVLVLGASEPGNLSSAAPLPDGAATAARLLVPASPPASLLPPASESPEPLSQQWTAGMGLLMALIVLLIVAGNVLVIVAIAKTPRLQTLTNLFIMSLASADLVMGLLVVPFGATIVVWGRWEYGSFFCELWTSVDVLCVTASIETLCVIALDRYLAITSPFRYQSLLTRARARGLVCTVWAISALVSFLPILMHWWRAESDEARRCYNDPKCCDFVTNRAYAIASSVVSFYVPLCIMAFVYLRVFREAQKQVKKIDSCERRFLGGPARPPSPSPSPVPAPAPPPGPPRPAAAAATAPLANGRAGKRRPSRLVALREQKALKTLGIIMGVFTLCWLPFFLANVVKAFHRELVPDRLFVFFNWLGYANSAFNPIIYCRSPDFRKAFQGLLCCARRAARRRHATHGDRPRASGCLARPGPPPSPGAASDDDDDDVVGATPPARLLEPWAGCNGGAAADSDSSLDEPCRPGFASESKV
The experiment is described as follows: Adrenergic β1 selectivity binding assay ([125I]-Iodocyanopindolol). Conditions: inhibition of [125I]-Iodocyanopindolol binding, human β1 membranes; read-out: β1 bind p IC50 (converted). The procedure: Membranes containing recombinant human adrenergic beta 1 receptors were obtained from Euroscreen. These were diluted in Assay Buffer (50 mM HEPES, 1 mM EDTA, 120 mM NaCl, 0.1% gelatin, pH 7.4) to provide a final concentration of membranes that gave a clear window between maximum and minimum specific binding.
as §1, with “plates. 10 μL [^125I]-Iodocyanopindolol (0.036 nM final” for “plates. 10 μl [^3H]-prazosin (0.3 nM final”, “and 10 μL of test” for “and 10 μl of test”, “obtained for [^125I]-Iodocyanopindolol binding in” for “obtained for [^3H]-prazosin binding in”, “or 10 μl Propranolol (10 μM” for “or 10 μL BMY7378 (10 μM”, “with 250 μL wash buffer” for “with 250 μl wash buffer”, “mM EDTA, 120 mM NaCl, pH 7.4)” for “mM EDTA, pH 7.4)”
Total specific binding (B0) was determined by subtracting the mean NSB from the mean maximum binding. NSB values were also subtracted from values from all other wells. […] Data was fitted to a four parameter logistic equation to determine the compound potency, which was expressed as pIC50 (negative log molar concentration inducing 50% inhibition of [^125I]-Iodocyanopindolol binding).

T3 sequence (P14416 1-414 isoform P14416-2): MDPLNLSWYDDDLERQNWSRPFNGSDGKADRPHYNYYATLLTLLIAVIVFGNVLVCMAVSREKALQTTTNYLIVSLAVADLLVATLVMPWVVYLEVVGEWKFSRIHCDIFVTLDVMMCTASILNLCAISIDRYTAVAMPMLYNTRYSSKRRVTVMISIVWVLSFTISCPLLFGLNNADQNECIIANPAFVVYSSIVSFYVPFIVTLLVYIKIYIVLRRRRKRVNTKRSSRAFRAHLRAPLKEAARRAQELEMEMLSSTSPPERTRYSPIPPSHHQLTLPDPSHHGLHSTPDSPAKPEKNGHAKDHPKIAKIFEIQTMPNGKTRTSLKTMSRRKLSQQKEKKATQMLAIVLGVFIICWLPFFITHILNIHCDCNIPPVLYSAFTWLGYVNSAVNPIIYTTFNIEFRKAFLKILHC

As to `Cn1cc(-c2cccc(CCOCCC(=O)N(CCNCCc3ccc(O)c4c3OCC(=O)N4)C3CCCCCC3)c2)nn1` [Example 06, N-Cycloheptyl-N-(2-(2-(5-hydroxy-3-oxo-3,4-dihydro-2H-benzo[b][1,4]oxazin-8-yl)ethylamino)ethyl)-3-(3-(1-methyl-1H-1,2,3-triazol-4-yl)phenethoxy)propanamide Trifluoroacetic Acid Salt], on Adrenergic β2, the “β2 Int Act” value is recorded as 0.95 and the EC50 is 12.6 nM. Further, the IC50 in experiment [1] was 1580 nM. In addition, the IC50 in experiment [2] was 2000 nM.
As for `CC(C)[C@@H](C)N(CCNCCc1ccc(O)c2c1OCC(=O)N2)C(=O)CCOCCc1cccc(-c2cnn(C(C)C)c2)c1` [Example 20, (R)—N-(2-(2-(5-Hydroxy-3-oxo-3,4-dihydro-2H-benzo[b][1,4]oxazin-8-yl)ethylamino)ethyl)-3-(3-(1-isopropyl-1H-pyrazol-4-yl)phenethoxy)-N-(3-methylbutan-2-yl)propanamide Trifluoroacetic Acid Salt], on Adrenergic β2, the “β2 Int Act” value turned out to be 1.00 and the EC50 was 10 nM. Besides, the IC50 in experiment [1] was 501 nM. Further, the IC50 in experiment [3] is above 10000 nM.
The like results for `CCn1cc(-c2cccc(CCOCCC(=O)N(CCNCCc3ccc(O)c4c3OCC(=O)N4)[C@H](C)C(C)C)c2)cn1` [Example 23, (R)-3-(3-(1-Ethyl-1H-pyrazol-4-yl)phenethoxy)-N-(2-(2-(5-hydroxy-3-oxo-3,4-dihydro-2H-benzo[b][1,4]oxazin-8-yl)ethylamino)ethyl)-N-(3-methylbutan-2-yl)propanamide Trifluoroacetic Acid Salt] were, in that order, 0.98, 6.31 nM, 794 nM and above 10000 nM.
In the case of `O=C1COc2c(CCNCCN(C(=O)CCOCCc3cccc(-c4ncon4)c3)C3CCCCC3)ccc(O)c2N1` [Example 11, 3-(3-(1,2,4-Oxadiazol-3-yl)phenethoxy)-N-cyclohexyl-N-(2-(2-(5-hydroxy-3-oxo-3,4-dihydro-2H-benzo[b][1,4]oxazin-8-yl)ethylamino)ethyl)propanamide Trifluoroacetic Acid Salt], at Adrenergic β2, the “β2 Int Act” value worked out at 0.85 and the EC50 is 10 nM. Besides, the IC50 in experiment [1] is 631 nM. Also, the IC50 in experiment [2] is 3980 nM.
Turning to `Cn1cc(-c2cccc(CCOCCC(=O)N(CCNCCc3ccc(O)c4c3OCC(=O)N4)C3CCCCC3)c2)cn1` [01 and 02], the “β2 Int Act” value on Adrenergic β2 amounted to 0.96. Besides, the EC50 at Adrenergic β2 is 6.31 nM. For the same compound, the IC50 was 1000 nM in experiment [1] and above 7940 nM in experiment [3].
The like results for `CCCn1cc(-c2cccc(CCOCCC(=O)N(CCNCCc3ccc(O)c4c3OCC(=O)N4)C3CCCC3)c2)cn1` [Example 18, N-Cyclopentyl-N-(2-(2-(5-hydroxy-3-oxo-3,4-dihydro-2H -benzo[b][1,4]oxazin-8-yl)ethylamino)ethyl)-3-(3-(1-propyl-1H -pyrazol-4-yl)phenethoxy)propanamide Trifluoroacetic Acid Salt] were, in that order, 0.97, 10 nM, 1000 nM and above 7940 nM.
